The numbers were not newly measured in patent US10537636B2, “Treatment of cancer with therapeutic monoclonal antibody specific for a tumor associated antigen and an immune adjuvant” (Oncoquest, Inc., priority 2017, dated 2020), which cites them from elsewhere.

The test system of this series is advanced ovarian cancer. Particulars: mono-immunotherapy following front-line chemotherapy.

Regarding oregovomab, the clinical outcome is given as “failed to improves clinical outcome”.
